Marks after values point to notes of the source that are not given here.
Key:
Sirt2 = target: T1, Sirt2 (Homo sapiens, UniProt Q8IXJ6); test: SIRT2 Fluorimetric Drug Discovery Kit, Sirt2 activation; type: biochemical
T1 construct: purchased BioMol, Hamburg, Germany
T1 sequence (Q8IXJ6 1-389): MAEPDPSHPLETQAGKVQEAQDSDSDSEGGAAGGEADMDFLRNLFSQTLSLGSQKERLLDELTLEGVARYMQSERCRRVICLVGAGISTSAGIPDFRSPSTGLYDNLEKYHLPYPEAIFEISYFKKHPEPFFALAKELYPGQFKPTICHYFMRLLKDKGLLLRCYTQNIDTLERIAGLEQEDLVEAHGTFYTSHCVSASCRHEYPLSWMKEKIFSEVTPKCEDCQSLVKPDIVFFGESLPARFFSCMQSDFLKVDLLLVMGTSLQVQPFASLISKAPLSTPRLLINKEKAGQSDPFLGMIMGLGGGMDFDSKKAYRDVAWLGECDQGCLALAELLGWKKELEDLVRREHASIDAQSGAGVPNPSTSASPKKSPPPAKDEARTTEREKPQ

Sirt3 = target: T2, Sirt3 (Homo sapiens, UniProt Q9NTG7); test: SIRT3 Fluorimetric Drug Discovery Kit, Sirt3 activation; type: biochemical
T2 construct: purchased BioMol, Hamburg, Germany
T2 sequence (Q9NTG7 1-399): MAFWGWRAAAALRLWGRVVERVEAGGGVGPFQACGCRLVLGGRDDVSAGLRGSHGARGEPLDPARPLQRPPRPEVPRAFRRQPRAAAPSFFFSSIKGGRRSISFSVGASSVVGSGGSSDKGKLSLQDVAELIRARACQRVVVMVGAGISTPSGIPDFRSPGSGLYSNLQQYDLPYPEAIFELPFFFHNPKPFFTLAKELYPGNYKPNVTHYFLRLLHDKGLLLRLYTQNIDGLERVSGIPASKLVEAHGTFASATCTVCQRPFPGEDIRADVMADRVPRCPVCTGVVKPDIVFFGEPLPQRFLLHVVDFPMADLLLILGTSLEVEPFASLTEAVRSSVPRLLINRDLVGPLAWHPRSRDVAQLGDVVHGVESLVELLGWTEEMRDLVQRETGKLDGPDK

[1] = tested on: 5'-AMP-activated protein kinase (AMPK); test: Western blot analysis of AMPK phosphorylation in NHEK; type: cell-based, human; conditions: 48 h;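 for P-AMPK: Chemiluminescence band density of P-AMPK measured with Multigauge software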
[2] = tested on: normal human epidermal keratinocytes (NHEK); test: MTT reduction assay, cytotoxicity in NHEK; type: cell-based
Protocol: Culture conditions: 37 °C, 5 % CO2. Culture medium: Keratinocyte-SFM (serum-free medium) containing human recombinant epidermal growth factor (EGF 1-53) 0.25 ng/mL and bovine pituitary extract 25 µg/mL (Gibco; Cat. No. 17005-075), supplemented with gentamycin 25 µg/mL. Assay medium: Keratinocyte-SFM (Gibco; Cat. No. 10744-019), supplemented with gentamycin 25 µg/mL.
NHEK were seeded in 24-well plates (30.000 cells / well) and cultured in culture medium for 24 h and then in assay medium for another 24 h. Medium was then removed and replaced by assay medium containing the respective test compound or reference in defined concentrations.
Cytotoxicity was determined using the 3-(4,5-dimethylthiazol-2-yl)-2,5-diphenyltetrazoliumbromid (MTT) reduction assay (sse T. Mosmann (1983) J. Immunol. Methods. 65, pp. 55-63).

[3] = tested on: normal human dermal fibroblasts (NHDF); test: Mitochondria content of NHDF, Mito-ID Green Detection Kit; type: cell-based
Protocol: (§1) The effect of compound (I-1) on mitochondria biosynthesis was investigated in normal human dermal fibroblasts (NHDF). NHDF were obtained from PromoCell (Lot No. 006151; donor; from eyelid skin) and cultivated in Fibroblast Growth Medium (PromoCell; Cat. No. C-023020) supplemented with Supplement Mix (PromoCell; Cat. No. C-039215) at 37 °C /5% CO2. NHDF were seeded in flat-bottom 96-well plates (5000 cells / well) and incubated in said medium for 24 h or 48 h, respectively, with the compounds present in concentrations ranging from 0.03 µM to 200 µM. Mitochondria content was analyzed using the Mito-ID® Green Detection Kit for fluorescence microscopy (Enzo Life Sciences; Cat. No. ENZ-51055-K500). Fluorometric analysis was done using a Spectramax plate reader (Molecular Devices) and following the manufacturer's protocol. Cytotoxicity was determined in parallel by fluorometric readout using the Resazurin Based In Vitro Toxicology Assay Kit (Sigma Aldrich, Cat. No. TOX-8), and following the manufacturer's protocol.

[4] = tested on: normal human dermal fibroblasts (NHDF); test: Resazurin based cytotoxicity assay in NHDF; type: cell-based; conditions: 24 h and 48 h, 0.03 µM to 200 µM
Protocol: as §1

[5] = Experiment 1, Membrane 1, 10 µM
[6] = Experiment 1, Membrane 1, 30 µM

remaining activity at 0.3 µM (Sirt2; Example 2, Table 4, 0.3 µM, read-out: Activity [% control]): 114%
remaining activity at 1 µM (Sirt2; Example 2, Table 4, 1.0 µM, read-out: Activity [% control]): 142%
remaining activity at 3 µM (Sirt2; Example 2, Table 4, 3.0 µM, read-out: Activity [% control]): 204%
remaining activity at 10 µM (Sirt2; Example 2, Table 4, 10.0 µM, read-out: Activity [% control]): 530%
remaining activity at 30 µM (Sirt2; Example 2, Table 4, 30.0 µM, read-out: Activity [% control]): 914%
EC300 (Sirt2; Example 2, Table 6, Sirt2): 4.9 µM
remaining activity at 0.3 µM (Sirt3; Example 2, Table 5, 0.3 µM, read-out: Activity [% control]): 109%
remaining activity at 1 µM (Sirt3; Example 2, Table 5, 1.0 µM, read-out: Activity [% control]): 124%
remaining activity at 3 µM (Sirt3; Example 2, Table 5, 3.0 µM, read-out: Activity [% control]): 156%
remaining activity at 10 µM (Sirt3; Example 2, Table 5, 10.0 µM, read-out: Activity [% control]): 216%
remaining activity at 30 µM (Sirt3; Example 2, Table 5, 30.0 µM, read-out: Activity [% control]): 247%
EC300 (Sirt3; Example 2, Table 6, Sirt3, footnote for (I-1): clear activation in dose-response curve visible): >30* µM
SMILES: CCOC(=O)c1c(O)cccc1/C=C/c1ccc(OCC)cc1 [(I-1)]
AMPK phosphorylation [% Control] ([1]; Experiment 1, Membrane 1, 3 µM): 60 % Control
P-AMPK ([1]; Experiment 1, Membrane 1, 3 µM): 123 AU/mm^2
Ratio P-AMPK/ GAPDH ([1]; Experiment 1, Membrane 1, 3 µM): 0.26
AMPK phosphorylation [% Control] [1, 5]: 90 % Control
P-AMPK [1, 5]: 202 AU/mm^2
Ratio P-AMPK/ GAPDH [1, 5]: 0.38
AMPK phosphorylation [% Control] [1, 6]: 1006 % Control
P-AMPK [1, 6]: 2554 AU/mm^2
Ratio P-AMPK/ GAPDH [1, 6]: 4.26
cytotoxicity against NHEK [2]: no cytotoxicity
Signal intensity [% Control] ([3]; 24 h incubation time, 0.03 µM): 100 % Control
Signal intensity [% Control] ([3]; 24 h incubation time, 0.09 µM): 99 % Control
Signal intensity [% Control] ([3]; 24 h incubation time, 0.27 µM): 100 % Control
Signal intensity [% Control] ([3]; 24 h incubation time, 0.82 µM): 101 % Control
Signal intensity [% Control] ([3]; 24 h incubation time, 2.47 µM): 103 % Control
Signal intensity [% Control] ([3]; 24 h incubation time, 7.41 µM): 114 % Control
Signal intensity [% Control] ([3]; 24 h incubation time, 22.22 µM): 182 % Control
Signal intensity [% Control] ([3]; 24 h incubation time, 66.67 µM): 354 % Control
Signal intensity [% Control] ([3]; 24 h incubation time, 200.00 µM): 906 % Control
Signal intensity [% Control] ([3]; 48 h incubation time, 0.03 µM): 97 % Control
Signal intensity [% Control] ([3]; 48 h incubation time, 0.09 µM): 92 % Control
Signal intensity [% Control] ([3]; 48 h incubation time, 0.27 µM): 91 % Control
Signal intensity [% Control] ([3]; 48 h incubation time, 0.82 µM): 93 % Control
Signal intensity [% Control] ([3]; 48 h incubation time, 2.47 µM): 94 % Control
Signal intensity [% Control] ([3]; 48 h incubation time, 7.41 µM): 103 % Control
Signal intensity [% Control] ([3]; 48 h incubation time, 22.22 µM): 147 % Control
Signal intensity [% Control] ([3]; 48 h incubation time, 66.67 µM): 293 % Control
Signal intensity [% Control] ([3]; 48 h incubation time, 200.00 µM): 765 % Control
concentrations with significant enhancement of mitochondria biosynthesis ([3]; NHDF, 24 h and 48 h): ≥ 10 µM
cytotoxicity or loss of cell viability [4]: no cytotoxicity or loss of cell viability

Reference: patent EP2801357A1, “Carboxylated stilbenes for activating AMPK and sirtuins” (IMD Natural Solutions GmbH, priority 2013, dated 2014)
